Each structure is given as a SMILES string.

One series has as its target MMP-2 (Homo sapiens, UniProt P08253). Put plainly: biochemical. Particulars: MMP-2 Fluorogenic IC50.
Another series has as its target T1, MMP-3 (Homo sapiens, UniProt P08254).
T1 construct: made in house; host or cells: CHO cells
Put plainly: P218 quenched fluorescence assay for MMP inhibition, MMP-3. Format: biochemical. Particulars: 6 μM P218 substrate, 25 min at 37° C., pH 6.5; read-out: MMP-3 Fluorogenic IC50. The text has this:
(§1) P218 Quenched Fluorescence Assay for MMP Inhibition:
(§2) The P218 quenched fluorescence assay (Microfluorometric Profiling Assay) is a modification of that originally described by Knight, et al., FEBS Lett. 296, 263 (1992) for a related substance and a variety of matrix metalloproteinases (MMPs) in cuvettes. The assay was run with each invention compound and the three MMPs, MMP-3, MMP-9 and MMP-2, analyzed in parallel, adapted as follows for a 96-well microtiter plate and a Hamilton AT® workstation.
(§3) P218 Fluorogenic Substrate: P218 is a synthetic substrate containing a 4-acetyl-7-methoxycoumarin (MCA) group in the N-terminal position and a 3-[2,4-dinitrophenyl]-L-2,3-diaminopropionyl (DPA) group internally. This is a modification of a peptide reported by Knight (1992) that was used as a substrate for matrix metalloproteinases. Once the P218 peptide is cleaved (putative clip site at the Ala-Leu bond), the fluorescence of the MCA group can be detected on a fluorometer with excitation at 328 nm and emission at 393 nm. P218 is currently being produced BACHEM exclusively for Bayer. P218 has the structure:
(§4) H-MCA-Pro-Lys-Pro-Leu-Ala-Leu-DPA-Ala-Arg-NH2 (MW 1332.2)
Recombinant Human CHO Stromelysin (MMP-3)
Recombinant Human CHO Pro-MMP-3: Human CHO pro-stromelysin-257 (pro-MMP-3) was expressed and purified as described by Housley, et al., J. Biol. Chem. 268, 4481 (1993).
Activation of Pro-MMP-3: Pro-MMP-3 at 1.72 μM (100 μg/mL) in 5 mM Tris at pH 7.5, 5 mM CaCl2, 25 mM NaCl, and 0.005% Brij-35 (MMP-3 activation buffer) was activated by incubation with TPCK (N-tosyl-(L)-phenylalanine chloromethyl ketone) trypsin (1:100 w/w to pro-MMP-3) at 25° C. for 30 min. The reaction was stopped by addition of soybean trypsin inhibitor (SBTI; 5:1 w/w to trypsin concentration). This activation protocol results in the formation of 45 kDa active MMP-3, which still contains the C-terminal portion of the enzyme.
(§5) Hamiltion Microlab AT Plus: The MMP-Profiling Assay is performed robotically on a Hamilton MicroLab AT Plus®. The Hamilton is programmed to: (1) serially dilute up to 11 potential inhibitors automatically from a 2.5 mM stock in 100% DMSO; (2) distribute substrate followed by inhibitor into a 96 well Cytofluor plate; and (3) add a single enzyme to the plate with mixing to start the reaction. Subsequent plates for each additional enzyme are prepared automatically by beginning the program at the substrate addition point, remixing the diluted inhibitors and beginning the reaction by addition of enzyme. In this way, all MMP assays were done using the same inhibitor dilutions.
(§6) Millipore Cytofluor II. Following incubation, the plate was read on a Cytofluor II fluorometric plate reader with excitation at 340 nm and emission at 395 nm with the gain set at 80.
(§7) Microfluorometric Reaction Buffer (MRB): Dilution of test compounds, enzymes, and P218 substrate for the microfluorometric assay were made in microfluorometric reaction buffer consisting of 50 mM 2-(N-morpholino)ethanesulfonic acid (MES) at pH 6.5 with 10 mM CaCl2, […] NaCl, 0.005% Brij-35 and 1% DMSO.
(§8) MMP Microfluorometric Profiling Assay. The assay is done with a final substrate concentration of 6 μM P218 and approximately 0.5 to 0.8 nM MMP with variable drug concentrations. The Hamilton is programmed to serially dilute up to 11 compounds from a 2.5 mM stock (100% DMSO) to 10× the final compounds concentrations in the assay. Initially, the instrument delivers various amounts of microfluoromentric reaction buffer (MRB) to a 96 tube rack of 1 ml Marsh dilution tubes. The instrument then picks up 20 μl of inhibitor (2.5 mM) from the sample rack and mixes it with a buffer in row A of the Marsh rack, resulting in a 50 μM drug concentration. The inhibitors are then serially diluted to 10, 5, 1, 0.2, 0.05 and 0.01 μM. […]

A further series deals with T2, MMP-9 (Homo sapiens, UniProt P14780).
T2 construct: made in house
Put plainly: P218 quenched fluorescence assay for MMP inhibition, MMP-9. The series is classed as biochemical. Particulars: 6 μM P218 substrate, 25 min at 37° C., pH 6.5; read-out: MMP-9 Fluorogenic IC50.
Source text: as §1, §2, §3, §4
Preparation of Human Recombinant Pro-Gelatinase B (MMP-9):
Recombinant Human Pro-MMP-9: Human pro-gelatinase B (pro-MMP-9) derived from U937 cDNA as described by Wilhelm, et al. J. Biol. Chem. 264, 17213 (1989) was expressed as the full-length form using a baculovirus protein expression system. The pro-enzyme was purified using methods previously described by Hibbs, et al. J. Biol. Chem. 260, 2493 (1984).
Activation of Pro-MMP-9: […] 20 μg/mL in 50 mM Tris at pH 7.4, 10 mM CaCl2, 150 mM NaCl, and 0.005% Brij-35 (MMP-9 activation buffer) was activated by incubation with 0.5 mM p-aminophenylmercuric acetate (APMA) for 3.5 h at 37° C. The enzyme was dialyzed against the same buffer to remove the APMA.
as §5, §6, §7, §8

The conditions of series [1]: Child, et al., J. Pharm. Sci., 66, 466 (1977); cited from earlier work.

T2 sequence (P14780 107-707 limits assumed): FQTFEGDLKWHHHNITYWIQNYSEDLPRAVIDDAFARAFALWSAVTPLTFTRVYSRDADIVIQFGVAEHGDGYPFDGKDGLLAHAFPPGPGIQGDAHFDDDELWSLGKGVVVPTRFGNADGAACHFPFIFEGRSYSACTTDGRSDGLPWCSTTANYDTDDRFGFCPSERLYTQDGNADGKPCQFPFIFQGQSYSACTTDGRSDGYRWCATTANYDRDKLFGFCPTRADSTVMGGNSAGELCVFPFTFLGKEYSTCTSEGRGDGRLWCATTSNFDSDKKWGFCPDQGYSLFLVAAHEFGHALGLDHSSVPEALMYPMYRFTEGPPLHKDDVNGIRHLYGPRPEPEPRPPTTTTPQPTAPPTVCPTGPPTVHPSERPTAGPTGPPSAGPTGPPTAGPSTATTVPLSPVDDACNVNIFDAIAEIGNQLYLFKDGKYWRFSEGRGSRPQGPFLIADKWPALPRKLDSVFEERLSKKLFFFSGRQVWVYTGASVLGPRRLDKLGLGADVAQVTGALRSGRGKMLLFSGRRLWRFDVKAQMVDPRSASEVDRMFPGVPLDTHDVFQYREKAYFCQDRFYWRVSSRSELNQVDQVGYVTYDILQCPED
Sequence of MMP-2 (P08253 110-660): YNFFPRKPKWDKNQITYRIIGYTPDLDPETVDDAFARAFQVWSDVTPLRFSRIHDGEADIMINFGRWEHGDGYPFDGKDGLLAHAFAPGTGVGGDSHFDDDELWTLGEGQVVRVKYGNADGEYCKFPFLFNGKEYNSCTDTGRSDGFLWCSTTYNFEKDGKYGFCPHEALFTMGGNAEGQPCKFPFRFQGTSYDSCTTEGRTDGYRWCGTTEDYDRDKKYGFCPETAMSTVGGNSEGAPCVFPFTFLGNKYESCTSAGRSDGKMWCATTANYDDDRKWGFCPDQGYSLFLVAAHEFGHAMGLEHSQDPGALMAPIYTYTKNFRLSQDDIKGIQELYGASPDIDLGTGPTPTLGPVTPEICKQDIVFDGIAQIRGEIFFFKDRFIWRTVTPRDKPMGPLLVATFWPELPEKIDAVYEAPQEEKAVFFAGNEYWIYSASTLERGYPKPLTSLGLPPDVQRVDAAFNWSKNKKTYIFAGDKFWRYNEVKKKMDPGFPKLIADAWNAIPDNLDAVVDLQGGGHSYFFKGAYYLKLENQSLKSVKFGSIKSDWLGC
T1 sequence (P08254 100-477): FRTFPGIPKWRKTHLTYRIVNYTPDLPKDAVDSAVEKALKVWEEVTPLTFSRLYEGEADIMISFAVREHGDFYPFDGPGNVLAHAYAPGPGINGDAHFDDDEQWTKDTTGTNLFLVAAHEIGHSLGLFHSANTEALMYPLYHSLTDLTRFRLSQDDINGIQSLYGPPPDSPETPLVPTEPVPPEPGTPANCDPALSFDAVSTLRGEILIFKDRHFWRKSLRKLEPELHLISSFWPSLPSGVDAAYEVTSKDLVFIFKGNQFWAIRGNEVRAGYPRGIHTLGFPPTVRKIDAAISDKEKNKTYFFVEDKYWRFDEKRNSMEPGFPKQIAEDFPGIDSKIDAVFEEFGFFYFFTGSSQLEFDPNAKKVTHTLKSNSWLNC

By IC50 is commonly meant the concentration that inhibits the measured activity by half. For `O=C(CC(CCn1ncc2ccccc2c1=O)C(=O)O)c1ccc(-c2ccc(Cl)cc2)cc1` (stereo not drawn) [Example 18, R/S α-[2-(4′-chloro[1,1′-biphenyl]-4-yl)-2-oxoethyl]-1-oxo-2(1H)-phthalazinebutanoic acid], the IC50 at MMP-2 is 13 nM; on MMP-3, 59 nM; at MMP-9, 32 nM.
Take `O=C(CC(C(=O)O)c1ccccc1)c1ccc(-c2ccccc2)cc1` (centres unmarked) [XLIX]: in series [1], the “activity as anti-inflammatory analgesic agents” value (“activity” for short) is “inactive”.
For orientation: melting point means the temperature, or range, at which the solid turns liquid. On to `O=C(c1ccc(-c2ccc(Cl)cc2)cc1)C1CCC(CSC(=S)N2CCCC2)C1C(=O)O` (centres unmarked) [Example 3], for which the melting point fell in the range of 177 to 178 °C. Moreover, half-maximal inhibition at MMP-2 (IC50) was put at 21 nM. The IC50 on MMP-3 is 31 nM. For the same molecule, the IC50 on MMP-9 amounted to 67 nM.
Consider `CC(CC(=O)c1ccc(-c2ccccc2)cc1)C(=O)O` (centres unmarked) [XLVII], for which the “activity” value in series [1] was “inactive”.
The molecule `O=C(O)C1[C@H](COCOCc2ccccc2)CC[C@@H]1C(=O)c1ccc(-c2ccc(Cl)cc2)cc1` (relative stereo) [Example 2] came in with a melting point of 112 to 130 °C. At MMP-2, this molecule returned an IC50 of 9.5 nM. Also, at MMP-3, the IC50 is 17 nM. Further, on MMP-9, the IC50 was determined as 24 nM.
For the molecule `O=C(CC(CCn1nnc2ccccc2c1=O)C(=O)O)c1ccc(-c2ccc(Cl)cc2)cc1` (single isomer, unassigned) [Example 20, α-[2-(4′-chloro[1,1′-biphenyl]-4-yl)-2-oxoethyl]-4-oxo-1,2,3,-Benzotriazine-3(4H)-butanoic acid], the IC50 against MMP-2 worked out at 57 nM; on MMP-3, 320 nM; on MMP-9, 84 nM.
For `O=C(c1ccc(-c2ccc(Cl)cc2)cc1)C1CCC(Cn2ncc3ccccc3c2=O)C1C(=O)O` (centres unmarked) [Example 5] the same measures were 1.4 nM, 4.2 nM and 2.3 nM.
Consider `O=C(c1ccc(-c2ccc(Cl)cc2)cc1)C1CCC(Cn2c(=O)oc3ccccc32)C1C(=O)O` (centres unmarked) [Example 6], for which the IC50 on MMP-2 turned out to be 0.5 nM; at MMP-3, 4.1 nM; on MMP-9, 4.3 nM.
For `O=C(CC(CCn1nnc2ccccc2c1=O)C(=O)O)c1ccc(-c2ccc(Cl)cc2)cc1` (single isomer, unassigned) [Example 21, α-[2-(4′-chloro[1,1′-biphenyl]-4-yl)-2-oxoethyl]-4-oxo-1,2,3,-Benzotriazine-3(4H)-butanoic acid], the values for the IC50 against MMP-2, on MMP-3 and at MMP-9 were 1.5 nM, 6.5 nM and 2.1 nM, respectively.
Consider `O=C(O)CC(C(=O)c1ccc(-c2ccccc2)cc1)c1ccccc1` (centres unmarked) [LXXVII], for which the “activity” value in series [1] is “inactive”.

The record behind these values is patent US6911449B2, “Inhibition of matrix metalloproteases by substituted biaryl oxobutyric acids” (Bayer Pharmaceuticals Corporation, priority 1996, dated 2005).
